Experimental data from US20230210999A1, “TARGETED PROTEASE DEGRADATION (TED) PLATFORM” (EUBULUS BIOTHERAPEUTICS INC., priority 2020, published 2023).
Like-named read-outs stand apart in the source and are kept apart here.

What was measured:
Type in all cases: cell-based, human
MV4;11 cells = experiment: Cell proliferation experiment (Alamar blue, 72 h), MV4;11; conditions: read-out: Inhibitory activity IC50 on MV4;11
Procedure, shortened: (§1)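 IC50 values derive from a four-parameter logistic fit of Alamar blue fluorescence. Cells in logarithmic growth, plated in 96-well format, are treated for 72 h with compound diluted 5-fold serially, two wells per concentration.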

PC-3 = experiment: Cell proliferation experiment, PC-3; conditions: read-out: Inhibitory activity IC50 on PC-3
Experimental: (§2) Reagents: RPMI-1640 medium, McCoy's 5A medium, IMDM medium, MEM medium, L-15 medium, fetal bovine serum. Penicillin-Streptomycin double antibody, trypsin, etc., 2-mercaptoethanol, NEAA, pyruvate, etc.
(§3) The cells were cultured in conventional ways, and the cells should be passed at least 2 generations before plating. Cells at the logarithmic growth phase were collected, prepared into single cell suspensions and counted. The concentration of cells was adjusted to the desired concentration, and cells were inoculated into a 96-well cell culture plate at 100 μl per well. 100 μL of complete medium of the test compound were added to each well, set up 2 duplicate wells for each concentration, and diluted with a 5-fold gradient, and continued to culture for 72 h. All cells were subjected to IC50 test for corresponding samples. The experimental results are shown in Test Example 4.
(§4) The fluorescence intensity of each well was detected using the Alarm blue method, and IC50 was calculated.
(§5) IC50 was calculated according to the following formula:
(§6) Y=Max+(Min−Max)/[1+(X/IC50)×Slope]
(§7) wherein Min, Max and Slope represent the minimum, maximum and slope respectively.

MDA-MB-231 cells = experiment: Cell proliferation experiment, MDA-MB-231; conditions: read-out: Inhibitory activity IC50 on MDA-MB-231
Experimental: as §2, §3, §4, §5, §6, §7

NCIH82 cells = experiment: Cell proliferation experiment, NCI-H82; conditions: read-out: Inhibitory activity IC50 on NCI-H82
Procedure, shortened: as §1

[1] = Homo sapiens, MV4-11, MV4;11 cells
[2] = Homo sapiens, MDA-MB-231, MDA-MB-231 cells
[3] = Homo sapiens, NCI-H82, NCI-H82 cells

Compound	IC50 (MV4;11 cells; [1]) [µM]	IC50 (PC-3; Homo sapiens, PC-3, PC-3 cells) [µM]	IC50 (MDA-MB-231 cells; [2]) [µM]	IC50 (NCIH82 cells; [3]) [µM]	IC50 (MV4;11 cells; MV4;11 cells) [µM]	IC50 (PC-3; PC-3 cells) [µM]	IC50 (MDA-MB-231 cells; MDA-MB-231 cells) [µM]	IC50 (NCIH82 cells; NCI-H82 cells) [µM]
O=C1CCC(N2Cc3cc(NC(=O)CCOCCOCCOCC(O)Cn4cc(-c5ccc(Nc6ncc7c(n6)-c6ccc(Cl)cc6C(c6c(F)cccc6F)=NC7)cc5)nn4)ccc3C2=O)C(=O)N1 (centres unmarked) [UB-181075]	> 1	> 1	> 1	0.1 to 1				
CNC(=O)c1ccccc1Nc1nc(Nc2ccc(N3CCN(C(=O)N[C@H]4CC[C@@H](NCCCOCC#Cc5cccc6c5CN(C5CCC(=O)NC5=O)C6=O)CC4)CC3)cc2)ncc1Cl (some centres unmarked) [UB-181091]	< 0.01	> 1	0.1 to 1	0.1 to 1				
CNC(=O)c1ccccc1Nc1nc(Nc2ccc(N3CCN(C(=O)NCCOCC(O)COCCOCCC(=O)Nc4cccc5c4CN(C4CCC(=O)NC4=O)C5=O)CC3)cc2)ncc1Cl (centres unmarked) [UB-181079]	< 0.01	> 1	> 1	0.1 to 1				
CNC(=O)c1ncccc1Nc1nc(Nc2ccc(N3CCN(C(=O)NC4CCC(NCCOCCC#Cc5cccc6c5CN(C5CCC(=O)NC5=O)C6=O)CC4)CC3)cc2)ncc1Cl (centres unmarked) [UB-181128]	< 0.01	> 1	> 1	> 1				
N#Cc1ccccc1Nc1nc(Nc2ccc(C3CCN(C(=O)N[C@H]4CC[C@@H](NCCOCCC#Cc5ccc6c(c5)CN(C5CCC(=O)NC5=O)C6=O)CC4)CC3)cc2)ncc1Cl (some centres unmarked) [UB-181135]	0.01 to 0.1	> 1	> 1	> 1				
O=C1CCC(N2Cc3cc(NC(=O)CCNCCCOCCCCNC(=O)c4ccc(Nc5ncc6c(n5)-c5ccc(Cl)cc5C(c5c(F)cccc5F)=NC6)cc4)ccc3C2=O)C(=O)N1 (centres unmarked) [UB-181033]	0.1 to 1	> 1	> 1	> 1				
CNC(=O)c1ccccc1Nc1nc(Nc2ccc(N3CCN(C(=O)N[C@H]4CC[C@@H](NCCOCCC#Cc5cccc6c5CN(C5CCC(=O)NC5=O)C6=O)CC4)CC3)cc2)ncc1C#N (some centres unmarked) [UB-181112]	< 0.01	> 1	> 1	0.1 to 1				
CNC(=O)c1ccccc1Nc1nc(Nc2ccc(N3CCN(C(=O)NCCCCOCCCCNC#Cc4cccc5c4CN(C4CCC(=O)NC4=O)C5=O)CC3)cc2)ncc1Cl (centres unmarked) [UB-181098]	< 0.01	0.1 to 1	> 1	0.01 to 0.1				
N#Cc1ccccc1Nc1nc(Nc2ccc(C3CCN(C(=O)N[C@H]4CC[C@@H](NCCOCCC#Cc5cccc6c5CN(C5CCC(=O)NC5=O)C6=O)CC4)CC3)cc2)ncc1Cl (some centres unmarked) [UB-181134]	0.01 to 0.1	> 1	> 1	> 1				
CS(=O)(=O)c1ccccc1Nc1nc(Nc2ccc(C3CCN(C(=O)N[C@H]4CC[C@@H](NCCOCCC#Cc5ccc6c(c5)CN(C5CCC(=O)NC5=O)C6=O)CC4)CC3)cc2)ncc1Cl (some centres unmarked) [UB-181140]	< 0.01	0.1 to 1	0.1 to 1	0.1 to 1				
NC(=O)c1ccccc1Nc1nc(Nc2ccc(C3CCN(C(=O)NC4CCC(NCCOCCC#Cc5ccc6c(c5)CN(C5CCC(=O)NC5=O)C6=O)CC4)CC3)cc2)ncc1Cl (centres unmarked) [UB-181152]	< 0.01	0.1 to 1	0.1 to 1	0.1 to 1				
CNC(=O)c1ccccc1Nc1nc(Nc2ccc(N3CCN(C(=O)N[C@H]4CC[C@@H](NCCOCCC#Cc5cccc6c5CN(C5CCC(=O)NC5=O)C6=O)CC4)CC3)cc2)ncc1Cl (some centres unmarked) [UB-181119]					< 0.01	0.01 to 0.1	0.1 to 1	0.1 to 1
CNC(=O)c1ccccc1Nc1nc(Nc2ccc(N3CCN(C(=O)NCCOCCOCCCNCC(=O)Nc4cccc5c4CN(C4CCC(=O)NC4=O)C5=O)CC3)cc2)ncc1Cl (centres unmarked) [UB-181040]	0.01 to 0.1	> 1	> 1	> 1				
CNC(=O)c1ccccc1Nc1nc(Nc2ccc(N3CCN(C(=O)N[C@H]4CC[C@@H](NCCCOCC#Cc5ccc6c(c5)CN(C5CCC(=O)NC5=O)C6=O)CC4)CC3)cc2)ncc1Cl (some centres unmarked) [UB-181096]	< 0.01	0.1 to 1	0.1 to 1	0.1 to 1				
CNC(=O)c1ccccc1Nc1nc(Nc2ccc(N3CCN(C(=O)NCCCCOCCCCNCCC#Cc4ccc5c(c4)CN(C4CCC(=O)NC4=O)C5=O)CC3)cc2)ncc1Cl (centres unmarked) [UB-181095]	< 0.01	0.1 to 1	> 1	0.1 to 1				
CNC(=O)c1ncccc1Nc1nc(Nc2ccc(N3CCN(C(=O)N[C@H]4CC[C@H](NCCOCCC#Cc5cccc6c5CN(C5CCC(=O)NC5=O)C6=O)CC4)CC3)cc2)ncc1C#N (some centres unmarked) [UB-181124]	0.01 to 0.1	0.01 to 0.1	> 1	> 1				
CNC(=O)c1ccccc1Nc1nc(Nc2ccc(N3CCN(C(=O)N[C@H]4CC[C@@H](NCCOCCC#Cc5ccc6c(c5)CN(C5CCC(=O)NC5=O)C6=O)CC4)CC3)cc2)ncc1C#N (some centres unmarked) [UB-181114]	< 0.01			0.1 to 1		> 1	> 1	
CNC(=O)c1ccccc1Nc1nc(Nc2ccc(N3CCN(C(=O)NC4CCC(NCCOCCC#Cc5ccc6c(c5)CN(C5CCC(=O)NC5=O)C6=O)CC4)CC3)cc2)ncc1C#N (centres unmarked) [UB-181125]	0.01 to 0.1	0.1 to 1	> 1	> 1				
CNC(=O)c1ccccc1Nc1nc(Nc2ccc(N3CCN(C(=O)NCCCCOCCCNCCC(=O)Nc4ccc5c(c4)CN(C4CCC(=O)NC4=O)C5=O)CC3)cc2)ncc1Cl (centres unmarked) [UB-181042]	0.01 to 0.1	> 1	> 1	0.1 to 1				
CNC(=O)c1ccccc1Nc1nc(Nc2ccc(N3CCN(C(=O)N[C@H]4CC[C@@H](NCCCOCCC(=O)Nc5ccc6c(c5)CN(C5CCC(=O)NC5=O)C6=O)CC4)CC3)cc2)ncc1Cl (some centres unmarked) [UB-181093]	0.01 to 0.1	> 1	> 1	> 1				
O=C1CCC(N2Cc3c(NC(=O)CNCCCOCCOCCNC(=O)[C@]4(Cc5cccc(Nc6nccs6)n5)CC[C@@H](Oc5cccc(Cl)c5F)CC4)cccc3C2=O)C(=O)N1 (some centres unmarked) [UB-181035]	0.1 to 1	> 1	> 1	> 1				
CC(=O)c1ccccc1Nc1nc(Nc2ccc(C3CCN(C(=O)N[C@H]4CC[C@H](NCCOCCC#Cc5ccc6c(c5)CN(C5CCC(=O)NC5=O)C6=O)CC4)CC3)cc2)ncc1Cl (some centres unmarked) [UB-181151]	< 0.01	> 1	> 1	0.1 to 1				
CNC(=O)c1ccccc1Nc1nc(Nc2ccc(N3CCN(C(=O)NCCCOCCNCCC#Cc4cccc5c4CN(C4CCC(=O)NC4=O)C5=O)CC3)cc2)ncc1Cl (centres unmarked) [UB-181111]	< 0.01	0.1 to 1	> 1	0.01 to 0.1				
CNC(=O)c1ncccc1Nc1nc(Nc2ccc(N3CCN(C(=O)N[C@H]4CC[C@@H](NCCOCCC#Cc5cccc6c5CN(C5CCC(=O)NC5=O)C6=O)CC4)CC3)cc2)ncc1C#N (some centres unmarked) [UB-181116]	0.1 to 1	> 1	> 1	> 1				
CC(=O)c1ccccc1Nc1nc(Nc2ccc(C3CCN(C(=O)N[C@H]4CC[C@H](NCCOCCC#Cc5cccc6c5CN(C5CCC(=O)NC5=O)C6=O)CC4)CC3)cc2)ncc1Cl (some centres unmarked) [UB-181146]	< 0.01	> 1	> 1	> 1				
CNC(=O)c1ccccc1Nc1nc(Nc2ccc(N3CCN(C(=O)NCCNCCCC(=O)Nc4ccc5c(c4)CN(C4CCC(=O)NC4=O)C5=O)CC3)cc2)ncc1Cl (centres unmarked) [UB-181056]	0.01 to 0.1	> 1	> 1	0.1 to 1				
